# Assay results reported in US9980943B2, “Methods of treating muscular dystrophy” (BOARD OF REGENTS OF THE NEVADA SYSTEM OF HIGHER EDUCATION, …, priority 2013, dated 2018).
# Where two headings read alike, the source gives them in different places.
# Assays:
# [1] = system: α7 integrin (LacZ reporter in α7LacZ+/− myoblasts); experiment: qHTS of the LOPAC library and MLSMR (online screen, α7LacZ+/− myoblasts); details: Mus musculus, Myoblast; for activation at 0.307 µM: read-out: Activity at 0.307 uM [%] **; for activation at 1.53 µM: read-out: Activity at 1.530 uM [%] **; for activation at 7.66 µM: read-out: Activity at 7.660 uM [%] **; for activation at 38.3 µM: read-out: Activity at 38.30uM [%] **; for EC50: read-out: Fit LogAC50 (converted)
# Method: A total of 250 α7LacZ^+/− myoblasts at passage 13 were dispensed using a multidrop (Thermo) into black low base tissue culture treated microclear aurora plates in 6 μl media containing DMEM without phenol, 5% FBS, 1× GluMax and 1× Penicillin/Streptomycin. […] Compounds were then dispensed using a Kalypsys pintool to deliver 23 nl/well compounds in DMSO (diluted into 6 μl resulting in a 1:260 dilution of compound). […] After incubation with compound, 5 μl of the media was aspirated using the Kalypsys washer/dispenser and 3 μl of the Mammalian Protein Extraction Reagent (MPER) lysis buffer (Thermo Fisher) was added. […] The plates were then incubated for 10 minutes at room temperature.
# The assay was adapted for a high-throughput screen with the fully automated Kalypsys robotic system using 1536 well plates at NCGC.
# [2] = system: α7 integrin (LacZ reporter in α7+/LacZ myotubes); experiment: Myotube α7 integrin FDG assay (Burkin assay in myotubes, 96-well); format: cell-based, mouse; details: myotubes
# [3] = system: β-galactosidase in CMV-LacZ C2C12 myotubes; experiment: CMV-LacZ secondary screen in C2C12 myotubes (β-Gal stabilizing assay); format: cell-based, mouse; details: for CMV-LACZ in Myotubes (β-galactosidase activity relative to DMSO): CMV-LacZ C2C12 myotubes, 96-well format
# How it was run: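 β-Gal level was the read-out, measured in a clonal C2C12 line expressing LacZ from a CMV promoter. Dose-response curves used six concentrations, 0.5 μM up to 40 μM, with duplicate points.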
# [4] = system: α7 integrin (LacZ reporter in α7βgal+/− myoblasts); experiment: Myoblast α7+/LacZ integrin FDG assay (Burkin assay in myoblasts, 96-well); format: cell-based, mouse; details: α7+/LacZ myoblasts, 96-well
# [5] = 48 h, read-out: Fit Infinite Activity [%]
# [6] = 5 uM, C2C12 CMV-LacZ myotubes, fold relative to DMSO
# [7] = 10 uM, C2C12 CMV-LacZ myotubes, fold relative to DMSO
# [8] = 20 uM, C2C12 CMV-LacZ myotubes, fold relative to DMSO
# [9] = 40 uM, C2C12 CMV-LacZ myotubes, fold relative to DMSO
smiles,measurement,setting,value
Cc1ccc(NC(=O)C2CCCCC2C(=O)O)cc1C (centres unmarked) [Compound 114],activation at 0.307 µM,[1]; 48 h,-6.72%
same,activation at 1.53 µM,[1]; 48 h,-1.25%
same,activation at 7.66 µM,[1]; 48 h,17.2%
same,activation at 38.3 µM,[1]; 48 h,135%
same,Emax,[1]; [5],135%
same,EC50,[1],11.2 µM
same,Emax,[1]; read-out: Max Response [%],135%
CC1(C)CC(O)=C/C(=N\c2ccc(C(=O)O)c(O)c2)C1 [Compound 99],activation at 0.307 µM,[1]; 48 h,0.744%
same,activation at 1.53 µM,[1]; 48 h,1.73%
same,activation at 7.66 µM,[1]; 48 h,44.4%
same,activation at 38.3 µM,[1]; 48 h,114%
same,Emax,[1]; [5],121%
same,EC50,[1],10 µM
same,Emax,[1]; read-out: Max Response [%],114%
O=C(CCc1ccccc1)c1nnc(-c2ccccc2)o1 [Compound 183],activation at 0.307 µM,[1]; 48 h,0%
same,activation at 1.53 µM,[1]; 48 h,2.03%
same,activation at 7.66 µM,[1]; 48 h,24.4%
same,activation at 38.3 µM,[1]; 48 h,99.5%
same,Emax,[1]; [5],99.7%
same,EC50,[1],10 µM
same,Emax,[1]; read-out: Max Response [%],99.5%
CC(=O)Nc1ccc(NC(=O)[C@@H](NC(=O)c2cccc(C)c2)C(C)C)cc1 [MLS001176897-01],Burkin Assay in Myotubes (signal relative to DMSO),[2]; 0.5 uM,0.9577
same,Burkin Assay in Myotubes (signal relative to DMSO),[2]; 1 uM,1.073
same,Burkin Assay in Myotubes (signal relative to DMSO),[2]; 5 uM,1.022
same,Burkin Assay in Myotubes (signal relative to DMSO),[2]; 10 uM,1.194
same,Burkin Assay in Myotubes (signal relative to DMSO),[2]; 20 uM,1.145
same,Burkin Assay in Myotubes (signal relative to DMSO),[2]; 40 uM,1.163
same,CMV-LACZ in Myotubes (β-galactosidase activity relative to DMSO),[3]; 5 uM,1.009
same,CMV-LACZ in Myotubes (β-galactosidase activity relative to DMSO),[3]; 10 uM,0.797
same,CMV-LACZ in Myotubes (β-galactosidase activity relative to DMSO),[3]; 20 uM,1.121
same,CMV-LACZ in Myotubes (β-galactosidase activity relative to DMSO),[3]; 40 uM,1.046
same,"Burkin Assay in Myoblasts, value relative to DMSO",[4]; 0.5 uM,0.9342
same,"Burkin Assay in Myoblasts, value relative to DMSO",[4]; 1 uM,0.9456
same,"Burkin Assay in Myoblasts, value relative to DMSO",[4]; 5 uM,0.9058
same,"Burkin Assay in Myoblasts, value relative to DMSO",[4]; 10 uM,0.9978
same,"Burkin Assay in Myoblasts, value relative to DMSO",[4]; 20 uM,0.9458
same,"Burkin Assay in Myoblasts, value relative to DMSO",[4]; 40 uM,0.9475
Cc1cc(C(=O)Nc2cccc3ccccc23)c(C)o1 [MLS001219345-01],"Burkin Assay in Myotubes, α7 integrin LacZ reporter signal relative to DMSO",[2]; 0.5 uM,0.9416
same,"Burkin Assay in Myotubes, α7 integrin LacZ reporter signal relative to DMSO",[2]; 1 uM,0.9889
same,"Burkin Assay in Myotubes, α7 integrin LacZ reporter signal relative to DMSO",[2]; 5 uM,1.078
same,"Burkin Assay in Myotubes, α7 integrin LacZ reporter signal relative to DMSO",[2]; 10 uM,1.0424
same,"Burkin Assay in Myotubes, α7 integrin LacZ reporter signal relative to DMSO",[2]; 20 uM,0.7146
same,"Burkin Assay in Myotubes, α7 integrin LacZ reporter signal relative to DMSO",[2]; 40 uM,0.9232
same,"CMV-LACZ in Myotubes, signal relative to DMSO",[3]; [6],1.188
same,"CMV-LACZ in Myotubes, signal relative to DMSO",[3]; [7],0.8631
same,"CMV-LACZ in Myotubes, signal relative to DMSO",[3]; [8],1.0075
same,"CMV-LACZ in Myotubes, signal relative to DMSO",[3]; [9],1.0255
same,"Burkin Assay in Myoblasts, signal relative to DMSO",[4]; 0.5 uM,0.3027
same,"Burkin Assay in Myoblasts, signal relative to DMSO",[4]; 1 uM,1.119
same,"Burkin Assay in Myoblasts, signal relative to DMSO",[4]; 5 uM,1.046
same,"Burkin Assay in Myoblasts, signal relative to DMSO",[4]; 10 uM,1.014
same,"Burkin Assay in Myoblasts, signal relative to DMSO",[4]; 20 uM,0.9807
same,"Burkin Assay in Myoblasts, signal relative to DMSO",[4]; 40 uM,0.9227
Cl.O=C(CN1CCOCC1)NCc1cc([N+](=O)[O-])ccc1O [MLS001211976-01],"Burkin Assay in Myotubes, α7 integrin LacZ reporter signal relative to DMSO",[2]; 0.5 uM,1.032
same,"Burkin Assay in Myotubes, α7 integrin LacZ reporter signal relative to DMSO",[2]; 1 uM,1.2336
same,"Burkin Assay in Myotubes, α7 integrin LacZ reporter signal relative to DMSO",[2]; 5 uM,1.241
same,"Burkin Assay in Myotubes, α7 integrin LacZ reporter signal relative to DMSO",[2]; 10 uM,1.199
same,"Burkin Assay in Myotubes, α7 integrin LacZ reporter signal relative to DMSO",[2]; 20 uM,1.099
same,"Burkin Assay in Myotubes, α7 integrin LacZ reporter signal relative to DMSO",[2]; 40 uM,1.1302
same,"CMV-LACZ in Myotubes, signal relative to DMSO",[3]; [6],0.8547
same,"CMV-LACZ in Myotubes, signal relative to DMSO",[3]; [7],0.9979
same,"CMV-LACZ in Myotubes, signal relative to DMSO",[3]; [8],0.9697
same,"CMV-LACZ in Myotubes, signal relative to DMSO",[3]; [9],1.014
same,"Burkin Assay in Myoblasts, signal relative to DMSO",[4]; 0.5 uM,0.9583
same,"Burkin Assay in Myoblasts, signal relative to DMSO",[4]; 1 uM,0.946
same,"Burkin Assay in Myoblasts, signal relative to DMSO",[4]; 5 uM,0.9018
same,"Burkin Assay in Myoblasts, signal relative to DMSO",[4]; 10 uM,0.9154
same,"Burkin Assay in Myoblasts, signal relative to DMSO",[4]; 20 uM,0.9417
same,"Burkin Assay in Myoblasts, signal relative to DMSO",[4]; 40 uM,0.8952
CCCCS(=O)(=O)N1CCCC(C(=O)NCCc2ccccc2)C1 (centres unmarked) [MLS001163121-01],Burkin Assay in Myotubes (signal relative to DMSO),[2]; 0.5 uM,1.052
same,Burkin Assay in Myotubes (signal relative to DMSO),[2]; 1 uM,0.9895
same,Burkin Assay in Myotubes (signal relative to DMSO),[2]; 5 uM,0.9395
same,Burkin Assay in Myotubes (signal relative to DMSO),[2]; 10 uM,1.173
same,Burkin Assay in Myotubes (signal relative to DMSO),[2]; 20 uM,1.07
same,Burkin Assay in Myotubes (signal relative to DMSO),[2]; 40 uM,1.09
same,CMV-LACZ in Myotubes (β-galactosidase activity relative to DMSO),[3]; 5 uM,0.8506
same,CMV-LACZ in Myotubes (β-galactosidase activity relative to DMSO),[3]; 10 uM,0.8294
same,CMV-LACZ in Myotubes (β-galactosidase activity relative to DMSO),[3]; 20 uM,0.8781
same,CMV-LACZ in Myotubes (β-galactosidase activity relative to DMSO),[3]; 40 uM,0.9211
same,"Burkin Assay in Myoblasts, value relative to DMSO",[4]; 0.5 uM,1.049
same,"Burkin Assay in Myoblasts, value relative to DMSO",[4]; 1 uM,1.012
same,"Burkin Assay in Myoblasts, value relative to DMSO",[4]; 5 uM,0.9488
same,"Burkin Assay in Myoblasts, value relative to DMSO",[4]; 10 uM,0.9907
same,"Burkin Assay in Myoblasts, value relative to DMSO",[4]; 20 uM,0.8074
same,"Burkin Assay in Myoblasts, value relative to DMSO",[4]; 40 uM,0.9157
COc1cccc(NC(=O)c2ccc3c(c2)CCCC3)c1 [MLS000879190-01],fold induction at 0.5 µM,"[2]; Mus musculus, Myotube, 0.5 uM, read-out: Burkin Assay in Myotubes (signal relative to DMSO)",0.965
same,fold induction at 1 µM,"[2]; Mus musculus, Myotube, 1 uM, read-out: Burkin Assay in Myotubes (signal relative to DMSO)",1.13
same,fold induction at 5 µM,"[2]; Mus musculus, Myotube, 5 uM, read-out: Burkin Assay in Myotubes (signal relative to DMSO)",1.05
same,fold induction at 10 µM,"[2]; Mus musculus, Myotube, 10 uM, read-out: Burkin Assay in Myotubes (signal relative to DMSO)",0.913
same,fold induction at 20 µM,"[2]; Mus musculus, Myotube, 20 uM, read-out: Burkin Assay in Myotubes (signal relative to DMSO)",1.08
same,fold induction at 40 µM,"[2]; Mus musculus, Myotube, 40 uM, read-out: Burkin Assay in Myotubes (signal relative to DMSO)",0.849
same,fold induction at 5 µM,"[3]; Mus musculus, C2C12, read-out: CMV-LACZ in Myotubes, signal relative to DMSO, 5 uM, C2C12 CMV-LacZ myotubes, fold relative to DMSO",0.991
same,fold induction at 10 µM,"[3]; Mus musculus, C2C12, read-out: CMV-LACZ in Myotubes, signal relative to DMSO, 10 uM, C2C12 CMV-LacZ myotubes, fold relative to DMSO",1.05
same,fold induction at 20 µM,"[3]; Mus musculus, C2C12, read-out: CMV-LACZ in Myotubes, signal relative to DMSO, 20 uM, C2C12 CMV-LacZ myotubes, fold relative to DMSO",0.85
same,fold induction at 40 µM,"[3]; Mus musculus, C2C12, read-out: CMV-LACZ in Myotubes, signal relative to DMSO, 40 uM, C2C12 CMV-LacZ myotubes, fold relative to DMSO",0.463
same,fold induction at 0.5 µM,"[4]; Mus musculus, Myoblast, 48 h, 0.5 uM, read-out: Burkin Assay in Myoblasts, value relative to DMSO",1.1
same,fold induction at 1 µM,"[4]; Mus musculus, Myoblast, 48 h, 1 uM, read-out: Burkin Assay in Myoblasts, value relative to DMSO",1.34
same,fold induction at 5 µM,"[4]; Mus musculus, Myoblast, 48 h, 5 uM, read-out: Burkin Assay in Myoblasts, value relative to DMSO",1.19
same,fold induction at 10 µM,"[4]; Mus musculus, Myoblast, 48 h, 10 uM, read-out: Burkin Assay in Myoblasts, value relative to DMSO",1.38
same,fold induction at 20 µM,"[4]; Mus musculus, Myoblast, 48 h, 20 uM, read-out: Burkin Assay in Myoblasts, value relative to DMSO",1.09
same,fold induction at 40 µM,"[4]; Mus musculus, Myoblast, 48 h, 40 uM, read-out: Burkin Assay in Myoblasts, value relative to DMSO",1.13
